# Source: patent publication US4181573A, “Process for the production of antibiotic X-14547” (Hoffmann-La Roche Inc., priority 1978, dated 1980)
# Where “and” joins values, the source holds several entries; their conditions need not be identical. Identical values can stand only once.
# What was measured:
# [1] = system: Staphylococcus aureus ATCC 6538P; experiment: Antimicrobial activity of co-metabolite (M.I.C.); assay type: cell-based; conditions: ATCC6538P
# Source text: (§1) *Minimum inhibitory concentration per ml. in mcg.
# [2] = system: Escherichia coli ATCC 27856; experiment: Antimicrobial activity of co-metabolite (M.I.C.); assay type: cell-based; conditions: ATCC27856
# Source text: as §1
# [3] = system: Bacillus sp. TA ATCC 27860; experiment: Antimicrobial activity of co-metabolite (M.I.C.); assay type: cell-based; conditions: ATCC27860
# Source text: as §1
# [4] = system: Paecilomyces varioti ATCC 26820; experiment: Antimicrobial activity of co-metabolite (M.I.C.); assay type: cell-based; conditions: ATCC26820
# Source text: as §1
# [5] = system: Pseudomonas aeruginosa ATCC 8709; experiment: Antimicrobial activity of co-metabolite (M.I.C.); assay type: cell-based; conditions: ATCC8709
# Source text: as §1
# [6] = system: Klebsiella pneumoniae ATCC 27858; experiment: Antimicrobial activity of co-metabolite (M.I.C.); assay type: cell-based; conditions: ATCC27858
# Source text: as §1
# gram-positive bacteria = experiment: Growth of gram-positive bacteria (summary in words); assay type: cell-based
# [7] = system: Paecilomyces varioti ATCC 26820; experiment: Antimicrobial activity, agar well diffusion assay; assay type: cell-based; conditions: ATCC26820, lowest twofold dilution giving a zone of inhibition, read-out: Minimum inhibitory concentration
# [8] = system: Bacillus subtilis NRRL 558; experiment: Antimicrobial activity, agar well diffusion assay; assay type: cell-based; conditions: NRRL558, lowest twofold dilution giving a zone of inhibition, read-out: Minimum inhibitory concentration
# [9] = system: volatile fatty acids produced in the rumen; experiment: In vitro rumen fermentation, ratio of volatile fatty acids (GLC); parameters: species or system steer; conditions: 4 hrs.; for μmoles C3 /μmoles C2 + μmoles nC4, means / μmoles C3 /μmoles C2 + μmoles nC4, replicate fermentations: 38° C.
# Method: Rumen fluid is obtained from a steer with a fistulated rumen. The steer is maintained on the following ration:
# The rumen fluid is immediately strained through a #30 mesh sieve. For each fermentation, 75 ml of the resulting fluid is added to a 250 ml flask containing the following:
# 1 g of 80%:20% finely ground grain: hay ration;
# 1 ml of an 18% aqueous glucose solution (1 millimole per flask);
# 1.5 ml of a 3.1% aqueous urea solution (0.76 millimole per flask);
# 60 micromoles of each of the 10 essential amino acids (arginine, histidine, leucine, methionine, threonine, valine, lysine, isoleucine, phenylalanine,tryptophan);
# Carbon dioxide is continuously passed through the hood. […] Three ml of the supernate is added to 1 ml of a 25% metaphosphoric acid solution containing 23 micromoles 2-methyl valeric acid as an internal standard. The resulting fluid is permitted to sit at room temperature for 30 minutes. The fluid is filtered through a […] Millipore filter and refrigerated until gas-liquid chromatographic analyses for volatile fatty acids.
# [10] = system: Mycobacterium phlei ATCC 355; experiment: Antimicrobial activity, agar well diffusion assay; assay type: cell-based; conditions: Mycolicibacterium phlei, ATCC355, lowest twofold dilution giving a zone of inhibition, read-out: Minimum inhibitory concentration
# [11] = system: Staphylococcus aureus ATCC 6538P; experiment: Antimicrobial activity, agar well diffusion assay; assay type: cell-based; conditions: ATCC6538P, lowest twofold dilution giving a zone of inhibition, read-out: Minimum inhibitory concentration
# Sarcina lutea ATCC 9341 = experiment: Antimicrobial activity, agar well diffusion assay; assay type: cell-based; conditions: Micrococcus luteus, ATCC9341, lowest twofold dilution giving a zone of inhibition, read-out: Minimum inhibitory concentration
# [12] = system: Bacillus species TA ATCC 27860; experiment: Antimicrobial activity, agar well diffusion assay; assay type: cell-based; conditions: ATCC27860, lowest twofold dilution giving a zone of inhibition, read-out: Minimum inhibitory concentration
# ruminant animals = experiment: Efficiency of feed utilization on oral administration; assay type: in vivo; conditions: administered orally
# [13] = system: DOCA-Na Sprague Dawley (Charles River) male rats; experiment: Antihypertensive activity in DOCA-Na hypertensive rats, systolic blood pressure; assay type: in vivo, rat; conditions: 10 MG/KG × 3 days PO; for SYSTOLIC BLOOD PRESSURE, PCT CHANGE: change from pre drug controls
# Method: (§2) Antihypertensive activity is tested for in the DOCA-Na Sprague Dawley (Charles River) male rats weighing 170-210 grams. DOCA-Na hypertension is produced by unilateral nephrectomy followed by subcutaneous implantation of a 25 mg. desoxycortico sterone (DOCA) pellet. Animals are placed in individual cages receiving 0.9% sodium chloride solution and rat chow diet ad libitum. Two weeks are allowed to elapse from the time of surgery for development of hypertension, i.e., systolic blood pressure of at least 150 mm. Hg.
# (§3) Systolic blood pressure and heart rate are measured indirectly from the tail of unanesthetized rats, using a pneumatic pulse transducer. Control readings are taken prior to drug and at 1, 3, 6 and 24 hours post drug.
# (§4) The results are expressed as absolute values and percent changes from controls.
# [14] = system: DOCA-Na Sprague Dawley (Charles River) male rats; experiment: Cardiac rate in DOCA-Na hypertensive rats; assay type: in vivo, rat; conditions: 10 MG/KG × 3 days PO; for CARDIAC RATE, PCT CHANGE: change from pre drug controls; for CARDIAC RATE, individual rats: rats 1-6
# Method: as §2, §3, §4
# [15] = system: Bacillus species E ATCC 27859; experiment: Antimicrobial activity, agar well diffusion assay; assay type: cell-based; conditions: ATCC27859, lowest twofold dilution giving a zone of inhibition, read-out: Minimum inhibitory concentration
# [16] = system: Streptomyces cellulosae ATCC 3313; experiment: Antimicrobial activity, agar well diffusion assay; assay type: cell-based; conditions: ATCC3313, lowest twofold dilution giving a zone of inhibition, read-out: Minimum inhibitory concentration
# [17] = Oral toxicity (LD50) in mice; conditions: mouse, in vivo
# [18] = system: Bacillus megaterium ATCC 8011; experiment: Antimicrobial activity, agar well diffusion assay; assay type: cell-based; conditions: Priestia megaterium, ATCC8011, lowest twofold dilution giving a zone of inhibition, read-out: Minimum inhibitory concentration
compound,measurement,setting,value
"CCC1(OC)C(=O)Nc2ccccc21 (stereo not drawn) [3-ethyl-1,3-dihydro-3-methoxy-2H-indole-2-one]",MIC,[1],5 mg/L
same,MIC,[2],5 mg/L
same,MIC,[3],2.5 mg/L
same,MIC,[4],2.5 mg/L
same,MIC,[5],5 mg/L
same,MIC,[6],5 mg/L
same,effect on growth of gram-positive bacteria,gram-positive bacteria,adversely affecting the growth of certain gram-positive bacteria
"CCC(=CC=CC1C=CC2C(CC)CCC2C1C(=O)c1ccc[nH]1)C1OC(C(C)C(=O)O)CCC1C [Antibiotic X-14547, α-(R), 5 (S)-dimethyl-6(R)-{1-ethyl-4-[4-(R)-(2-pyrrolyl-carbonyl)-1(S)-ethyl-3a(R),4,5(R),7a(R)-tetrahydroindan-5-yl]-1(E), 3(E)-butadienyl}tetrahydropyran-2-acetic acid]",MIC,[7],6.3 mg/L
same,MIC,[8],0.1 mg/L
same,ratio of propionate (C3) to acetates and n-butyrates,"[9]; 10 and 25 ppm, versus controls",significantly improved
same,"μmoles C3 /μmoles C2 + μmoles nC4, means",[9]; 10 ppm,0.491
same,"μmoles C3 /μmoles C2 + μmoles nC4, replicate fermentations",[9]; 10 ppm,0.493 and 0.489
same,"μmoles C3 /μmoles C2 + μmoles nC4, means",[9]; 25 ppm,0.521
same,"μmoles C3 /μmoles C2 + μmoles nC4, replicate fermentations",[9]; 25 ppm,0.531 and 0.510
same,MIC,[10],3.1 mg/L
same,MIC,[11],0.2 mg/L
same,MIC,Sarcina lutea ATCC 9341,0.1 mg/L
same,MIC,[12],0.2 mg/L
same,efficiency of feed utilization,ruminant animals,increases the efficiency of feed utilization in ruminant animals
same,"SYSTOLIC BLOOD PRESSURE, MEAN",[13]; day 1,188.3 mmHg
same,"SYSTOLIC BLOOD PRESSURE, PCT CHANGE",[13]; day 1,-9.0 PCT
same,"SYSTOLIC BLOOD PRESSURE, individual rats","[13]; day 1, rats 1-6",216 mmHg and 178 mmHg and 184 mmHg and 198 mmHg and 151 mmHg and 203 mmHg
same,"SYSTOLIC BLOOD PRESSURE, MEAN","[13]; day 2, first line",185.7 mmHg
same,"SYSTOLIC BLOOD PRESSURE, PCT CHANGE","[13]; day 2, first line",-10.3 PCT
same,"SYSTOLIC BLOOD PRESSURE, individual rats","[13]; day 2, first line, rats",211 mmHg and 201 mmHg and 176 mmHg and 168 mmHg and 190 mmHg
same,"SYSTOLIC BLOOD PRESSURE, MEAN","[13]; day 2, second line",171.3 mmHg
same,"SYSTOLIC BLOOD PRESSURE, PCT CHANGE","[13]; day 2, second line",-17.1 PCT
same,"SYSTOLIC BLOOD PRESSURE, individual rats","[13]; day 2, second line, rats 1-6",184 mmHg and 174 mmHg and 161 mmHg and 165 mmHg and 179 mmHg
same,"SYSTOLIC BLOOD PRESSURE, MEAN","[13]; day 3, first line",205.0 mmHg
same,"SYSTOLIC BLOOD PRESSURE, PCT CHANGE","[13]; day 3, first line",-0.7 PCT
same,"SYSTOLIC BLOOD PRESSURE, individual rats","[13]; day 3, first line, rats 1-6",214 mmHg and 195 mmHg and 193 mmHg and 219 mmHg and 198 mmHg and 211 mmHg
same,"SYSTOLIC BLOOD PRESSURE, MEAN","[13]; day 3, second line",196.0 mmHg
same,"SYSTOLIC BLOOD PRESSURE, PCT CHANGE","[13]; day 3, second line",-5.2 PCT
same,"SYSTOLIC BLOOD PRESSURE, individual rats","[13]; day 3, second line, rats 1-6",210 mmHg and 177 mmHg and 173 mmHg and 206 mmHg and 190 mmHg and 220 mmHg
same,"SYSTOLIC BLOOD PRESSURE, MEAN",[13]; day 4,202.8 mmHg
same,"SYSTOLIC BLOOD PRESSURE, PCT CHANGE",[13]; day 4,-1.7 PCT
same,"SYSTOLIC BLOOD PRESSURE, individual rats","[13]; day 4, rats 1-6",197 mmHg and 172 mmHg and 229 mmHg and 212 mmHg and 179 mmHg and 228 mmHg
same,"CARDIAC RATE, MEAN",[14]; day 1,420.0 BEATS/MIN
same,"CARDIAC RATE, PCT CHANGE",[14]; day 1,2.0 PCT
same,"CARDIAC RATE, individual rats",[14]; day 1,480 BEATS/MIN and 360 BEATS/MIN and 450 BEATS/MIN and 440 BEATS/MIN and 390 BEATS/MIN and 400 BEATS/MIN
same,"CARDIAC RATE, MEAN","[14]; day 2, first line",400.0 BEATS/MIN
same,"CARDIAC RATE, PCT CHANGE","[14]; day 2, first line",-2.6 PCT
same,"CARDIAC RATE, individual rats","[14]; day 2, first line",430 BEATS/MIN and 320 BEATS/MIN and 360 BEATS/MIN and 490 BEATS/MIN and 370 BEATS/MIN
same,"CARDIAC RATE, MEAN","[14]; day 2, second line",378.3 BEATS/MIN
same,"CARDIAC RATE, PCT CHANGE","[14]; day 2, second line",-8.1 PCT
same,"CARDIAC RATE, individual rats","[14]; day 2, second line",420 BEATS/MIN and 310 BEATS/MIN and 400 BEATS/MIN and 380 BEATS/MIN and 450 BEATS/MIN
same,"CARDIAC RATE, MEAN","[14]; day 3, first line",363.3 BEATS/MIN
same,"CARDIAC RATE, PCT CHANGE","[14]; day 3, first line",-11.3 PCT
same,"CARDIAC RATE, individual rats","[14]; day 3, first line",380 BEATS/MIN and 360 BEATS/MIN and 370 BEATS/MIN and 350 BEATS/MIN
same,"CARDIAC RATE, MEAN","[14]; day 3, second line",365.0 BEATS/MIN
same,"CARDIAC RATE, PCT CHANGE","[14]; day 3, second line",-10.8 PCT
same,"CARDIAC RATE, individual rats","[14]; day 3, second line",370 BEATS/MIN and 360 BEATS/MIN and 350 BEATS/MIN and 380 BEATS/MIN
same,"CARDIAC RATE, MEAN",[14]; day 4,356.7 BEATS/MIN
same,"CARDIAC RATE, PCT CHANGE",[14]; day 4,-13.1 PCT
same,"CARDIAC RATE, individual rats",[14]; day 4,370 BEATS/MIN and 320 BEATS/MIN and 360 BEATS/MIN and 350 BEATS/MIN and 340 BEATS/MIN and 400 BEATS/MIN
same,MIC,[15],0.2 mg/L
same,MIC,[16],0.8 mg/L
same,LD50 at 24 h,[17],129 mg/kg
same,MIC,[18],0.1 mg/L
same,effect on growth of gram-positive bacteria,gram-positive bacteria,adversely affecting the growth of certain gram-positive bacteria
